Measured values as given in patent US9210928B2, “Plant development control composition” (Syngenta Crop Protection, LLC, priority 2008, dated 2015).
“Also recorded” adds a separate entry of the source.

How the values were obtained:
LeNCED1 = biological target: T1, LeNCED1 (Solanum lycopersicum, UniProt O24023); assay: In vitro NCED enzyme assay (recombinant LeNCED1 cell-free extract, HPLC, 9′-cis-neoxanthin substrate); format: biochemical, tomato; details: for LeNCED1 (11,12) Inhibition @ 100 μM (%): 100 μM inhibitor, E. coli cell extract with recombinant CCD
T1 construct: made in house; host or cells: E. coli Rosetta (DE3); crude cell-free extract
T1 sequence (O24023 17-605): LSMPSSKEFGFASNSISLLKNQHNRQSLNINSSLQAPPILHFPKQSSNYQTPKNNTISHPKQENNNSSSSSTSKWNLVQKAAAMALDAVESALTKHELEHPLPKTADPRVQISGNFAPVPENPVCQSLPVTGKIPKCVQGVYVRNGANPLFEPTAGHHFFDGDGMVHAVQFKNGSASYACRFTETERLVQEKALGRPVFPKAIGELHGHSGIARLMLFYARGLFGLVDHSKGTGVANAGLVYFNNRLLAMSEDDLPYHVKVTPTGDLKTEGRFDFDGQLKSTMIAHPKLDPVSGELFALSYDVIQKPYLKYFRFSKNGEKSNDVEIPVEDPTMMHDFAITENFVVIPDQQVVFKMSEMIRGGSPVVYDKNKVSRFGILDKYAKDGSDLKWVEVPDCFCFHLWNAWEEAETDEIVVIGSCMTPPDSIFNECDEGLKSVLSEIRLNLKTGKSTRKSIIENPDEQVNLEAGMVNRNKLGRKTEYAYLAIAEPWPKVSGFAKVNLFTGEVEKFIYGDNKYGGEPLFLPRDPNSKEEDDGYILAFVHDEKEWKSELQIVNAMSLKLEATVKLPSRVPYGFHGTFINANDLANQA
Experimental: In vitro NCED enzyme assay—We over-expressed LeNCED1 in E. coli, as an N-terminal His6-fusion protein (supplemental methods). Cell-free extract containing recombinant LeNCED1 was prepared in 100 mM bis-tris buffer (pH 6.7). 15 μl extract was pre-activated by addition of iron(II) sulphate (20 mM, 1 μl) and ascorbic acid (20 mM, 1 μl) on ice for 2 min, prior to use. This aliquot of enzyme was then added to an assay (150 μl total volume) containing 100 mM bis-tris buffer (pH 6.7), 0.05% v/v Triton X-100, 1.0 mg/ml catalase, and 3 μg 9′-cis-neoxanthin. The 9′-cis-neoxanthin substrate was prepared as described in supplemental methods. The enzyme assay was incubated for 15 min in the dark at 20° C. Water (700 μl) was then added, and the products extracted with ethyl acetate (3×1 ml). The organic solvent was removed at reduced pressure, the residue was dissolved in methanol (200 μl), and then 100 μl was injected onto a Phenomenex C18 reverse phase HPLC column, and a gradient of 5-10% methanol in acetonitrile/0.05% triethylamine was applied at 0.5 ml/min over 20 min, detecting at 440 nm. NCED inhibition assays contained 1-100 μM inhibitor; inhibition was calculated from the product formation after 15 min, compared to a control assay with no inhibitor present.
(§1) For the production of cell-free extracts of LeCCD1a and LeNCED1, cultures were grown to an OD of 0.6 at 37° C., then isopropyl β-D-1-thiogalactopyranoside (IPTG) was added to 0.2 mM and the cultures grown overnight at 20° C. The cells (200 ml cultures) were harvested by centrifugation (5000 rpm, 10 min) and the pellet re-suspended in 4 ml PBS, 0.1% Triton-X 100. Lysozyme was added to a final concentration of 25 μg ml^−1 and the solution incubated at room temperature for 15 min before sonication (3×30 s at 18Ω) on ice. The lysate was then centrifuged (13000 rpm, 15 min, 4° C.) and the supernatant used for the assay.
(§2) Specificity of inhibition in vitro for tomato genes LeNCED1 and LeCCD1a—In order to screen the inhibitors against enzymes which cleave carotenoids at the 9,10 position, we used the recombinant tomato LeCCD1a protein (44), because this type of enzyme can be studied using an in vitro colourimetric assay with β-apo-8′-carotenal as substrate (37). To establish the specificity of the inhibitors, they were also tested against the tomato LeNCED1 recombinant protein which cleaves 9-cis carotenoids at the 11,12 position (45). For this enzyme, the cleavage reaction was monitored by C18 reverse phase HPLC, using 9′-cis-neoxanthin as substrate.

LeCCD1a [1] = biological target: LeCCD1a (Solanum lycopersicum, UniProt Q6E4P5); assay: In vitro LeCCD1a enzyme assay (recombinant cell-free extract, colourimetric, apo-8′-carotenal substrate); format: biochemical, tomato (Solanum lycopersicum); details: for LeCCD1a (9,10/9′,10′) Inhibition @ 100 μM (%): 100 μM inhibitor; for LeCCD1a (9,10/9′,10′) Inhibition @ 100 μM (%) / IC50: E. coli cell extract with recombinant CCD; for inhibition at 100 µM: read-out: LeCCD1a (9,10/9′,10′) Inhibition @ 100 μM (%); for IC50: read-out: LeCCD1a (9,10/9′,10′) IC50
Sequence of LeCCD1a (Solanum lycopersicum, UniProt Q6E4P5) (Q6E4P5 1-545): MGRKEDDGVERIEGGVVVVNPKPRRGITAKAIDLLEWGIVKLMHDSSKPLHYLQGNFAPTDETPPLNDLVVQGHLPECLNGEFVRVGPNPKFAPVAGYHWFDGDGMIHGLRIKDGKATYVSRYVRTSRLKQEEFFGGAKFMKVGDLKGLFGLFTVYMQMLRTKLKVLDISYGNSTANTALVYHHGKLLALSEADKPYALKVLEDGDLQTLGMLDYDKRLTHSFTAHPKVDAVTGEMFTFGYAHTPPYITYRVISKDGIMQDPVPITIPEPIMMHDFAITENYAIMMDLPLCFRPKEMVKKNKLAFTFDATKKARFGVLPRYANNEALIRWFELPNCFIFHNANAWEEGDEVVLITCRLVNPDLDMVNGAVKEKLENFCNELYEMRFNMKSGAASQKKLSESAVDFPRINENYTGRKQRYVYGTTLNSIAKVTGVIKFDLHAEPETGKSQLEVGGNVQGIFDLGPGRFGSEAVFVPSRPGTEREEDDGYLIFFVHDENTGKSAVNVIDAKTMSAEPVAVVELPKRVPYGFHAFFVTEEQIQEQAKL
Experimental: In vitro LeCCD1a enzyme assay—We over-expressed LeCCD1a in E. coli, as a GST-fusion protein (supplemental methods). The in vitro assay of LeCCD1a was based on reported methods (37), and was carried out in a 200 μl total volume in a 96-well microtitre plate, with the signal detected at 485 nm. To prepare substrate solution for each assay, 5 μl of 4% (w/v in ethanol) apo-8′-carotenal (Sigma) was mixed with 25 μl of 4% (w/v in ethanol) β-octylglucoside (Sigma), the ethanol was then evaporated under nitrogen, and the residue dissolved in 150 μl PBS buffer containing 10 mM sodium ascorbate by incubation at 20° C. for 30 min. 50 μl of cell-free extract containing recombinant LeCCD1a was added, and the reactions monitored over 30 min at 20° C.
as §1, §2

LeCCD1a [2] = assay: In vivo enzyme assay in β-carotene-producing E. coli expressing LeCCD1a; format: cell-based, Solanum lycopersicum; details: 100 μM inhibitor, 16 hours; FIG. 4
Text: In vivo enzyme assays in E. coli—The genes of interest (supplemental Table S1) were cloned into the vector pET30c (Novagen) fused directly to the initial ATG codon with no tag, or into pGEX-4T such that the gene was fused to an N-terminal GST tag. All genes were full length except AtCCD7, which had the chloroplast signal sequence removed (supplemental methods). […] Therefore, this construct was used in subsequent assays. The plasmids were transferred to the E. coli expression strain BL21(DE3), harbouring pAC-BETA (38), and therefore producing β-carotene.
For each inhibitor assay, 2.5 ml LB media with the appropriate antibiotics (25 μg ml^−1 chloramphenicol and 50 μg ml^−1 kanamycin or 100 μg ml^−1 ampicillin) and 2.5 μM IPTG, was prepared. Inhibitors (0.1 M in 100% ethanol) were added to the media to a final concentration of 100 μM. The media was then inoculated with 0.25 ml of overnight culture (grown at 37° C. with the appropriate antibiotics) and incubated with shaking (200 rpm) at 28° C. for 16 hours. One ml of culture was harvested by microcentrifugation and resuspended thoroughly in 1 ml ethanol containing 0.2% Triton X-100. After vortexing, the extract was incubated at room temperature in the dark for 3 hours, again vortexed and then spun in a microcentrifuge for 5 min at 13000 rpm. The supernatant was removed and the O.D.453-O.D.550 was measured. The amount of β-carotene was calculated using a standard curve generated from a dilution series of β-carotene (Sigma) in ethanol with 0.2% Triton X-100; the absolute levels of β-carotene are shown in FIG. 8. The relative inhibition was calculated by the equation: (Ci−Cc)/(C1−Cc)×100, where Ci is the carotenoid level with inhibitor and CCD present, Cc is the level with CCD but without the inhibitor and C1 is the level in a strain where lacZ is expressed instead of the CCD, and no inhibitor is present. Thus the increase in β-carotene due to inhibition of the CCD […] was expressed relative to the maximum possible β-carotene content when CCD is absent (C1−Cc).
In vivo activity of inhibitors applied to E. coli strains expressing CCDs—Coloured E. coli strains that produce various carotenoids can be constructed by expression of enzymes for carotenoid synthesis (26). Upon co-expression of the appropriate CCD, the bacteria lose their colour due to cleavage of the carotenoids to colourless products (4,6,27). This technique was employed here to further explore the specificity of inhibitors, and to test their activity in vivo. The level of carotenoid in each CCD-expressing strain was compared to the level of the carotenoid in a control strain producing β-carotene but lacking any CCD gene. The difference in the carotenoid levels gave a measure of CCD activity, and inhibition of this activity was measured by addition of inhibitors to the growing medium.
The inhibitors were tested against four β-carotene-producing E. coli strains (supplemental Table S1). Three of the strains expressed highly divergent CCDs that cleave at the 9,10 position: AtCCD7 from Arabidopsis (21) and MmBCO2 from mouse (6) which both cleave at a single site (9,10 or 9′,10′ but not both), and the tomato enzyme LeCCD1a (44) which cleaves at both sites in the same substrate molecule (9,10/9′,10′ activity). The fourth strain expressed another mouse CCD, MmBCO1 (47), which cleaves centrally at 15,15′. […]

whole Arabidopsis plants = assay: Shoot branching in whole Arabidopsis plants grown in agar; format: in vivo; details: for unintended effects on whole Arabidopsis plants: applied to whole plants; for branching phenotype of whole plants (in words): plants grown under sterile conditions in agar
Experimental: Branching phenotypes of Arabidopsis plants grown in agar media for 45 days supplemented with inhibitor D6. Images are shown: (a) Col-0 (WT) without inhibitor; (b) max3-9 mutant without inhibitor; (c) Col-0 with 100 μM D6. The numbers (d) of rosette branches were quantified. Error bars represent standard error of the mean, n=6 to 12.
Stimulation of shoot branching in whole Arabidopsis plants—Inhibitors were also applied to Arabidopsis whole plants grown under sterile conditions in agar. […] Inhibitor treated plants were intermediate (mean of approximately 2 branches) and so partially mimicked max3-9 (FIG. 6d).

Compound | LeNCED1 (11,12) Inhibition @ 100 μM (%) (LeNCED1) | LeCCD1a (9,10/9′,10′) Inhibition @ 100 μM (%) (LeCCD1a [1]) | unintended effects on whole Arabidopsis plants (whole Arabidopsis plants) | inhibition at 100 µM (LeCCD1a [1]) [%] | also measured
CCCCCCCCN(O)C(=O)CCc1ccc(OC)cc1 [Compound D11, N-octyl-4-methoxyphenylpropionyl hydroxamic acid] | 15 | 53 |  |  | 
CCCCCCCCN(O)C(=O)CCc1ccc(OC)c(OC)c1 [Compound D10, N-octyl-3,4-dimethoxyphenylpropionyl hydroxamic acid] | 14 | 65 |  |  | 
COc1ccc(C=CC(=O)NO)cc1 [Compound D13, 4-Methoxyphenylpropenoyl hydroxamic acid] | 13 | 46 |  |  | 
COc1ccc(CC(=O)N(O)Cc2ccc(F)cc2)cc1OC [Compound D6, N-(4-fluorobenzyl)-3,4-dimethoxyphenylacetyl hydroxamic acid] |  |  | without negative unintended effects on whole plants | > 95 | relative inhibition of LeCCD1a in E. coli (in words) (LeCCD1a [2]): relatively weaker inhibition activity; branching phenotype of whole plants (in words) (whole Arabidopsis plants): bushy appearance; also recorded: largest effect on whole Arabidopsis plants, giving the greatest number of side branches
COc1ccc(C=CC(=O)NO)cc1OC [Compound D12, 3,4-Dimethoxyphenylpropenoyl hydroxamic acid] | 11 | 26 |  |  | 
O=C(Cc1ccc(O)c(O)c1)N(O)Cc1ccc(F)cc1 [Compound D3, N-(4-fluorobenzyl)-3,4-dihydroxyphenylacetyl hydroxamic acid] |  |  | negative effects on growth | > 95 | inhibition of LeNCED1 in vitro (in words) (LeNCED1): little or no inhibition of LeNCED1; inhibition of LeCCD1 in vitro (in words) (LeCCD1a [1]): high levels of inhibition of LeCCD1; also recorded: good inhibitors of the 9,10 enzymes in vitro; IC50 (LeCCD1a [1]): 800 to 900 nM
COc1ccc(CC(=O)N(O)Cc2ccccc2)cc1OC [Compound D5, N-benzyl-3,4-dimethoxyphenylacetyl hydroxamic acid] |  |  | without negative unintended effects on whole plants | > 95 | relative inhibition of LeCCD1a in E. coli (in words) (LeCCD1a [2]): relatively weaker inhibition activity; branching phenotype of whole plants (in words) (whole Arabidopsis plants): bushy appearance; also recorded: largest effect on whole Arabidopsis plants, giving the greatest number of side branches
COc1ccc(CCC(=O)N(O)Cc2ccccc2)cc1 [Compound D9, N-benzyl-4-methoxyphenylpropionyl hydroxamic acid] |  |  |  | > 95 | 
COc1ccc(CCC(=O)N(O)Cc2ccccc2)cc1OC [Compound D8, N-benzyl-3,4-dimethoxyphenylpropionyl hydroxamic acid] | 40 | 61 |  |  | inhibition of LeNCED1 in vitro (in words) (LeNCED1): greatest inhibition of NCED in vitro; also recorded: best 11,12 inhibitor
O=C(Cc1ccc(O)cc1)N(O)Cc1ccc(F)cc1 [Compound D2, N-(4-fluorobenzyl)-4-hydroxyphenylacetyl hydroxamic acid] |  |  | without negative unintended effects on whole plants | > 95 | branching phenotype of whole plants (in words) (whole Arabidopsis plants): bushy appearance; IC50 (LeCCD1a [1]): 800 to 900 nM
COc1ccc(C(=O)N(O)Cc2ccc(F)cc2)cc1OC [Compound F4, N-(4-fluorobenzyl)-3,4-dimethoxybenzoyl hydroxamic acid] | 0 | 0 |  |  | 
